Laboratory results taken from US20240101685A1, “NEAR INFRARED PHOTOIMMUNOTHERAPY (NIR-PIT) COMBINATION THERAPY TO TREAT CANCER” (THE UNITED STATES OF AMERICA, as represented by the …, priority 2021, published 2024).

Experiments:
[1] = IR700 at 689 nm; Photofrin 630 nm; Foscan 652 nm; NPe6/Laserphyrin 654 nm; cited from earlier work
[2] = dose of 3 mg/kg for melanoma therapy; cited from earlier work
LL2-luc tumor = conditions: IL15 1 ug i.p. preconditioning + anti-PD-L1-IR700 + NIR light 50 J/cm2
Method: Tumors were established in mice by administration of 5×10^5 LL2 cells s.c. Four days later, IL15 (1 ug i.p.) was administered, followed one day later with anti-PD-L1-IR700 (or vehicle control), followed with or without NIR light (50 J/cm2) another day later.

mEERL-hEGFR tumors [3] = assay: Histologic analysis (H-E staining) 1 hour after NIR-PIT; type: in vivo, C57BL/6 mice; conditions: tumors harvested 1 hour after light exposure
Text: Tumors from mEERL-hEGFR, MC38-luc, and LLC tumors were harvested, formalin-fixed and paraffin-embedded, and sectioned at […]. Following standard hematoxylin and eosin (HE) staining, bright-light photomicrographs were obtained using Mantra Quantitative Pathology Workstation (PerkinElmer).

mEERL-hEGFR tumors [4] = tested on: mEERL-hEGFR tumors; design: tumor volume: dose or concentration left out as unconfirmed
Method: The lower part of the body of the mice was shaved before NIR light irradiation and image analysis. Tumors were established via subcutaneous injection of 1×10^6 cells in the right or both side of dorsal flank for each model. Mice with tumors reaching approximately 50-100 mm^3 in volume were used for the experiments. Mice were monitored each day, and tumor volume (tumor volume=length×width^2×0.5) was measured twice a week until the tumor volume reached 2,000 mm^3, whereupon the mice were euthanized with inhalation of carbon dioxide gas. In a bilateral model, the mice were euthanized when either tumor reached its humane endpoint. Tumor disappearance for 4 weeks or longer after treatment was defined as complete remission.
The mixed antibody/APC was injected 6 days after inoculation of cancer cells into C57BL/6 mice. Twenty-four hours after administration, NIR light (690 nm, 150 mW/cm^2) was irradiated to tumors at 50 J/cm^2 in all groups. The surface of the mouse other than the tumor was covered with aluminum foil. […] In the bilateral model, NIR light (690 nm, 150 mW/cm^2) was given only to right-sided tumors at 50 J/cm^2 and the remainder of the mouse (including the left-sided tumor) was covered with aluminum foil during irradiation.

A431 GFP-luc cells = assay: In vitro NIR-PIT with reducing agents, PI staining; conditions: for cytotoxicity of Pan-PIT in the presence of NaN3: 10 mM NaN3
Method: (§2) A431 GFP-luc or MDAMB468 GFP-luc cells (4×10^5) were seeded into 12-well plates, and incubated for 24 hours, and then exposed to media containing panitumumab-IR700 (10 μg mL^−1) for 1 hour at 37° C. […] NIR light (690 nm, 150 mW cm^−2, 1 or 2 J cm^−2 for A431 GFP-luc, 20 J cm^−2 for MDAMB468 GFP-luc) was irradiated to cancer cells. For flow cytometric analyses, the cells were collected with trypsin one hour after NIR light exposure. Cells were then stained with propidium iodide (PI, 1 μg mL^−1) at RT for 5 minutes. The fluorescence of the cells was then analyzed with a flow cytometer (FACSCalibur, BD Biosciences, San Jose, CA, USA) and FlowJo software (BD Biosciences).

[5] = IR700 with L-cysteine, NaN3 added
[6] = Method: Before and after each irradiation, the 700 nm fluorescence intensity was acquired by a fluorescence imager (Pearl Imager, LI-COR Bioscience, Lincoln, NE, USA). Pearl Cam Software (LI-COR Biosciences) was used for analyzing fluorescence. The same regions of interest (ROIs) were put on the solution in each tube, and then mean 700 nm fluorescence intensity was measured. The appearance of the tube before and after NIR light irradiation was imaged. All the experiments were carried out at RT.
mEERL-hEGFR cells = assay: In vitro NIR-PIT, PI staining and MTT assay; type: cell-based, murine
Method: After washing with PBS, phenol-red-free RPMI 1640 medium was added. NIR light (690 nm) was irradiated to cancer cells with an ML7710 laser system (Modulight, Tampere, Finland) at a power density of 150 mW/cm^2. One hour after NIR-PIT, the cells were collected with trypsin, and stained with propidium iodide (PI, 1 μg/mL) at room temperature for 5 minutes, and then assessed for PI positivity on a BD FACSCalibur (BD Biosciences) using CellQuest software (BD Biosciences) using FlowJo software (FlowJo LLC). To assess cell viability, cell proliferation was evaluated by 3-(4,5-Dimethyl-2-thiazolyl)-2,5-diphenyl-2H-tetrazolium bromide (MTT) assay. Cells were incubated and treated, as described above. One hour after NIR-PIT, the medium was removed and 500 μl of MTT reagent (SIGMA Aldrich; 0.5 mg/ml) was added to each well. After 1 hour incubation, the supernatant was removed and 500 μL of 2-propanol was added to each well to dissolve the crystal formazan dye. After transferring 100 μL of the supernatant to 96 well plate each, absorbance was measured at 570 nm on a microplate reader (Synergy™ H1). For relative quantification, the value of absorbance in each group was normalized to that in the control group.

MOC2-luc tumors = assay: CD44-targeted NIR-PIT with or without L-NaAA
Method: (§3) The APC was injected 6 days after inoculation of cancer cells into C57BL/6 mice. […] NIR light (690 nm, 150 mW cm-2, 50 J cm-2) was exposed on the next day. […] Upon NIR light exposure, the normal tissue adjacent to the tumor was covered with aluminum foil to ensure that the NIR light exposure is limited in tumor site. Dorsal fluorescence images of IR700 were obtained with the 700 nm fluorescence channel of the Pearl Imager (LI-COR Biosciences). The images were taken pre- and post-NIR-PIT. ROIs were placed on the tumor. The dorsal edema formation of treated mouse 1 day after NIR light irradiation was imaged by a camera. Acute treatment efficacy was evaluated with BLI analysis, in which, D-luciferin (3 mg mouse-1; Gold Biotechnology) was intraperitoneally injected into mice. Luciferase activity was analyzed with a BLI system (Biospace Lab) using relative light units. ROIs were placed over the entire tumor. The counts per minute of relative light units were calculated using M3 Vision Software (Biospace Lab) and converted to the percentage based on those before NIR-PIT using the following formula: [(relative light units after treatment)/(relative light units before treatment)×100(%)]. Bioluminescence im-ages were continually recorded until the onset of depilation-induced skin pigmentation precluded accurate measurement.

MC38-luc tumors [7] = tested on: MC38-luc tumors
Method: ROIs were placed over the entire tumor. […] (A) Treatment schedule.
(§1) The images were taken pre- and post-NIR-PIT. ROIs were placed on the tumor. […] ROIs were placed over the entire tumor.
Scout images were obtained to accurately locate the tumor.
Single-cell suspensions from tumor samples were pre-pared using following protocol. Whole tumors were incubated in the RPMI 1640 medium (Thermo Fisher Scientific) containing collagenase type IV (1 mg mL^−1; Thermo Fisher Scientific) and DNase I (20 μg mL^−1; Millipore Sigma, Burlington, MA) in 37° C. for 30 minutes, then gently cut with scissors and mashed with the back of the plunger of 3 mL syringe. The tissues were passed through a 70 μm cell strainer (Corning, Corning, NY). A total of 3.0×10^6 cells was stained and data for 5.0×10^5 cells were collected for each tumor. The cells were stained with anti-CTLA4 antibody (Clone; UC10-4B9) from Thermo Fisher Scientific. To distinguish live cells from dead cells, cells were also stained with LIVE/DEAD Fixable Dead Cell Stain (Thermo Fisher Scientific). The fluorescence of the cells was then analyzed with the flow cytometer (FACSLyric, BD Biosciences) and FlowJo software (FlowJo LLC). Dead cells were removed from analysis based on FSC, SSC, and staining with LIVE/DEAD Fixable Dead Cell Stain.

MDAMB468 GFP-luc cells = assay: In vitro NIR-PIT with reducing agents, PI staining; conditions: 10 mM NaN3
Method: as §2

MC38-luc tumors [8] = assay: CD44-targeted NIR-PIT with or without L-NaAA
Method: Photon counts were evaluated with the Photon Imager (Biospace Lab) using relative light units. ROIs were placed over the entire tumor. The counts per minute of relative light units were calculated using M3 Vision Software (Biospace Lab) and converted to the percentage based on those before NIR-PIT using the following formula: [(relative light units after treatment)/(relative light units before treatment)×100(%)]. Chemiluminescent images were continually recorded 1 and 3 hours after NIR-PIT.
as §3
Under pentobarbital anesthesia, MRI was performed on a 3-T scanner using an in-house 10-inch circle shaped mouse receiver coil array (Elition 3T; Philips Medical Systems, Best, Nether-lands) 1 day after NIR light exposure. Scout images were obtained to accurately locate the tumor. All mice underwent T2-weighted fat-saturation imaging (T2WI fat-sat) and short-TI inversion recovery imaging (STIR). All images were obtained in the coronal plane and T2WI fat-sat images were also obtained in the axial plane. All images were analyzed using Image J software, and 3D imaging were recon-structed. The high signal intensity area derived from each image in T2WI fat-sat and STIR was calculated by Image J.

LL/2-luc tumors = assay: CD44-targeted NIR-PIT with or without L-NaAA; type: in vivo, C57BL/6 mice
Text: as §1

MC38-luc tumor = assay: In vivo efficacy of L-NaAA alone; design: species or system mice
Text: (C) Luciferase activity calculated from BLI (n=10, mean±SEM; repeated measures two-way ANOVA followed by Tukey's test; N.S., not significant).

A431 GFP-luc tumor = assay: Panitumumab NIR-PIT with or without L-NaAA; type: in vivo, athymic mice; conditions: with L-NaAA
Text: as §1

[9] = CD44-targeted NIR-PIT with L-NaAA
[10] = with or without L-NaAA injection
[11] = 1 day after CD44-targeted NIR-PIT

Photofrin®
extinction coefficient [1]: 1200 M⁻¹ cm⁻¹

Oc1cccc(-c2c3nc(c(-c4cccc(O)c4)c4ccc([nH]4)c(-c4cccc(O)c4)c4nc(c(-c5cccc(O)c5)c5ccc2[nH]5)CC4)C=C3)c1 [Foscan®, meta-tetrahydroxyphenylchlorin]
extinction coefficient [1]: 22000 M⁻¹ cm⁻¹

Ipilimumab: anti-CTLA4 antibody
patients with gastrointestinal symptoms (irAE) [2]: about 40%

IL-15: immunoactivator interleukin
survival (LL2-luc tumor): increased survival | tumor volume (LL2-luc tumor): substantially reduced tumor volume

panitumumab NIR-PIT
histologic change of tumor cells (H-E staining) (mEERL-hEGFR tumors [3]): swelling and vacuolation of the tumor cell | tumor volume (mEERL-hEGFR tumors [4]; mixed antibody/APC i.v., NIR light 50 J/cm^2 once 1 day later): not significantly decreased | mice in which the tumor was cleared (mEERL-hEGFR tumors [4]; n=12-13): 1/12

[N-]=[N+]=[N-] [NaN3, Sodium azide, reference compound]
cytotoxicity of Pan-PIT in the presence of NaN3 (A431 GFP-luc cells): suppression of NIR-PIT cytotoxicity | ligand cleavage (remaining IR700) [5]: ligand cleavage decreased

C[Si](C)(CCC[N+](CCCS(=O)(=O)O)(CCCS(=O)(=O)O)CCCS(=O)(=O)O)O[Si]1(O[Si](C)(C)CCC[N+](CCCS(=O)(=O)O)(CCCS(=O)(=O)O)CCCS(=O)(=O)O)n2c3c4ccccc4c2N=C2N=C(N=c4c5ccccc5c(n41)=NC1=NC(=N3)c3ccccc31)c1ccccc12 [Pc 3, Bis{3-[Tris(3-Sulfopropyl)]Ammoniopropyldimethylsilvloxide} Silicon Phthalocyanine]
solubility of Pc 3 after light exposure [6]: dramatically changed its solubility

N[C@@H](CS)C(=O)O [L-cysteine]
cytotoxicity of Pan-PIT in the presence of NaN3 (A431 GFP-luc cells): could not reverse the effects of NaN3 | cytotoxic damage of Pan-PIT, low concentration of reducing agent (A431 GFP-luc cells; L-NaAA low or pharmacological concentrations, L-cysteine 0.001 mM): slightly enhanced the cytotoxic damage | cytotoxic damage of Pan-PIT, high concentration of reducing agent (A431 GFP-luc cells; L-NaAA over 1 mM, L-cysteine 0.1 mM or higher): compromised the cytotoxicity

C=Cc1c(C)c2cc3nc(c(CC(=O)N[C@@H](CC(=O)[O-])C(=O)[O-])c4[nH]c(cc5nc(cc1[nH]2)C(C)=C5CC)c(C)c4C(=O)[O-])[C@@H](CCC(=O)[O-])[C@@H]3C.[Na+].[Na+].[Na+].[Na+] [NPe6/Laserphyrin®, mono-L-aspartylchlorin e6]
extinction coefficient [1]: 40000 M⁻¹ cm⁻¹

pan-IR700
cancer cell death (incorporation of propidium iodine and MTT assay) (mEERL-hEGFR cells; APC 10 μg/mL 1 h, NIR light 690 nm, read 1 h after NIR-PIT): cancer cell death was induced by NIR-PIT in an NIR light-dose dependent manner | cell viability, APC alone (mEERL-hEGFR cells; without NIR light): Neither NIR light alone nor panitumumab IR700 alone induced significant alterations in cell viability

O=C1O[C@H]([C@@H](O)CO)C([O-])=C1O.[Na+] [L-NaAA, L-sodium ascorbate]
body weight (MOC2-luc tumors; [9]): no significant difference in body weight was detected | antitumor effects of CD44-targeted NIR-PIT (BLI) (MOC2-luc tumors; with L-NaAA): not changed | edema formation 1 day after NIR-PIT (MOC2-luc tumors; [10]): no edema was detected | edema formation (MC38-luc tumors [7]; 1 day after CTLA4-targeted NIR-PIT): suppressed both macroscopically and by MRI | BLI intensity by day 6 post NIR-PIT (MC38-luc tumors [7]; CTLA4-IR700 50 μg, NIR 50 J cm-2, L-NaAA 80 mg mouse-1 i.p.): no difference was observed between the two groups | ROS (MC38-luc tumors [7]; CTLA4-targeted NIR-PIT with vs without L-NaAA): higher ROS was also detected in the NIR-PIT without L-NaAA group | body weight the day after NIR-PIT (MC38-luc tumors [7]; NIR-PIT with L-NaAA group): significant lower weight | CTLA4hi cells among total live cells (MC38-luc tumors [7]; three hours after CTLA4-targeted NIR-PIT): selectively depleted in both NIR-PIT with and without L-NaAA groups | cytotoxicity of Pan-PIT in the presence of NaN3 (MDAMB468 GFP-luc cells): restored cytotoxicity of Pan-PIT suppressed by NaN3 | edema on T2WI fat-sat MRI (MC38-luc tumors [8]; [11]): minimal edema was observed just around the treated tumors | high signal intensity area on T2WI fat-sat images (MC38-luc tumors [8]; [11]): significantly larger in the group treated without L-NaAA | ROS (chemiluminescence imaging with L-012) (MC38-luc tumors [8]; CD44-targeted NIR-PIT with vs without L-NaAA): significantly lower intensity (lower ROS) on CLI | body weight (MC38-luc tumors [8]; NIR-PIT with vs without L-NaAA): No significant difference in body weight | edema formation 1 day after NIR-PIT (MC38-luc tumors [8]; [10]): no edema was detected | body weight (LL/2-luc tumors; [9]): no significant difference in body weight was detected | antitumor effects of CD44-targeted NIR-PIT (BLI) (LL/2-luc tumors; with L-NaAA): not changed | edema formation 1 day after NIR-PIT (LL/2-luc tumors; [10]): no edema was detected | tumor growth (BLI) (MC38-luc tumor): not to affect tumor growth | efficacy of pan-PIT (BLI) (A431 GFP-luc tumor): did not affect the efficacy of pan-PIT
